{"source": "patent US4771041A", "about": "“Method for combating virus infection” (priority 1976, dated 1988)", "key": {"[1]": {"tested_on": "reverse transcriptase from AMV", "assay": "Cell-free reverse transcriptase inhibition, AMV", "type": "biochemical, avian myeloblastosis virus", "method": "(§1) Reverse transcriptase from various retroviruses have been tested in cell-free assays for inhibition by phosphonoformic acid and phosphonoacetic acid. The assay conditions have been described by Collaborative Research, Inc, 1365 Main Street, Waltham, Mass., USA \"Assay kit for mammalian viral reverse transcriptase\". BLV and VV were prepared in this laboratory and all other viruses and viral enzyme were obtained from Dr. K Nilsson, Department of Pathology, University of Uppsala and from Boehringer Mannheim, Germany. Phosphonoformic acid (PFA) and phosphonoacetic acid (PAA) were added at pH 7.2 to the reaction mixtures at the start of the reaction.\n(§2) Rauscher murine leukemia virus; RMuLV, visna virus; VV, avian myeloblastosis virus; AMV, bovine leukemia virus; BLV, baboon endogenous virus; BaEV, simian sarcoma virus; SSV."}, "[2]": {"design": "species or system Cynomolgus monkeys", "conditions": "cynomolgus monkey, in vivo", "method": "Phosphonoformic acid, also denoted PFA and phosphonoacetic acid, also denoted PAA were used in the form of their trisodium and disodium salt, respectively. The following equimolar compositions of the two test compounds were used: […]\nTwo adult male Cynomolgus monkeys were treated once daily for 7 days with PFA or PAA in Arlatone cream. Treatment was done both by topical application of 0.2 ml cream on an area of 3×7 cm on the upper part of the arms and by application of 0.2 ml of cream on the penis and the adjacent skin. During application of cream, the animals were lightly anaesthetized with Ketalar®, given intramuscularly. All applications were 0.2 ml each on day 6/3, 7/3, 8/3, 9/3, 10/3, 11/3 and 12/3 1978."}, "visna virus": {"tested_on": "visna virus", "assay": "Visna virus growth in sheep choroid plexus (SCP) cells: virus titre and morphological changes", "type": "cell-based", "conditions": "500 μM", "method": "Visna virus is a retrovirus that can multiply in sheep choroid (SCP) cells. The infection can be followed by titrating medium from infected cells to determine the formation of virus particles and by observing morphological changes as syncytial formation and cell degeneration.\nPlates (5 cm) with primary SCP cells in medium 199 with 10% sheep serum were grown to confluence and then infected with 1×10^6 TCID50 (tissue culture infectious doses) of visna virus. One set of plates were left untreated, one set received different concentrations of phosphonoformic acid (PFA) at pH 7.2. Another set received phosphonoacetic acid (PAA) at pH 7.2. Uninfected plates were used as controls with and without PFA and PAA. The virus titre was determined 5 days after infection by the end-point titration method. The plates were checked daily in a light microscope to observe morphological changes."}, "[3]": {"target": "T1, reverse transcriptase from BLV (Bovine leukemia virus, UniProt P03361)", "T1 construct": "Reverse transcriptase from various retroviruses have been tested in cell-free assays; made in house", "T1 sequence (P03361 546-1120)": "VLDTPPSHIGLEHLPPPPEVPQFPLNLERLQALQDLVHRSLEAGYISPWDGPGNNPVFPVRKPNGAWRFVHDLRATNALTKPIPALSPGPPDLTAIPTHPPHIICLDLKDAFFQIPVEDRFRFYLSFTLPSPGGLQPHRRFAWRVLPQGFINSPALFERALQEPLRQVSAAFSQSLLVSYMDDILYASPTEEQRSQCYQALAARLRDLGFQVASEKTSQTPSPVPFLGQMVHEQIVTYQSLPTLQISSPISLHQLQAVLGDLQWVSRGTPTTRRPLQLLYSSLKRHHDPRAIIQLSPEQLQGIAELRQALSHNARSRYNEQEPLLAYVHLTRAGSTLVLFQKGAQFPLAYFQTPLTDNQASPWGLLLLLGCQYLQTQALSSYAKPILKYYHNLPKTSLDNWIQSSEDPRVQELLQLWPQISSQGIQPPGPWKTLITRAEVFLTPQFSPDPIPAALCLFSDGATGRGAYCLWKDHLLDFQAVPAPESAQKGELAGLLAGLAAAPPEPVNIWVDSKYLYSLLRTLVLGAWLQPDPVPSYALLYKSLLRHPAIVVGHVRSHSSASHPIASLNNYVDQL", "assay": "Cell-free reverse transcriptase inhibition, BLV", "type": "biochemical", "conditions": "template/primer (rA)n.(dT)10, read-out: Percent inhibition", "method": "as §1, §2"}, "[4]": {"conditions": "guinea pig, in vivo", "method": "Phosphonoformic acid and phosphonoacetic acid were used as their trisodium and disodium salts, respectively. The test substances were used in 1% solutions.\nGuinea-pigs of the Dunkin-Hartley strain of both sexes and weighing 200-300 g were used. The back of the animal was shaved and depilated with Opilca® on the day before starting the application of the solutions. The back was divided into six squares in the middle of which 30 μl of the test solutions was applied. In a given group of animals the different solutions were applied in a randomized order alternating between sites. However, the same site was used for repeated application of a given solution.\nThe irritation was scored on scales of 0 to 3, each grade corresponding to the following specific criteria of irritation:\n1=slight erythema or edema or no hair growth\n2=moderate erythema or edema or skin discoloration\n3=marked erythema or edema or necrosis including crust formation.\nThe scoring was carried out blindly using coded solutions.\nThe scores of all the applications for a given solution and time were added and the average score was calculated.\nThe solvent used was a mixture of glycerol 10.0% (w/v), Tween 80 0.1% and aq sterile ad 100. All solutions were adjusted to pH 6.5 with hydrochloric acid or aqueous sodium hydroxide as required. Thirty μl of 1.0% solutions of phosphonoformic acid and phosphonoacetic acid respectively was applied twice daily during three days to each of six guinea pigs."}, "[5]": {"target": "T2, reverse transcriptase from VV (Maedi visna virus, UniProt P03370)", "T2 construct": "Reverse transcriptase from various retroviruses have been tested in cell-free assays; made in house", "T2 sequence (P03370 541-1111)": "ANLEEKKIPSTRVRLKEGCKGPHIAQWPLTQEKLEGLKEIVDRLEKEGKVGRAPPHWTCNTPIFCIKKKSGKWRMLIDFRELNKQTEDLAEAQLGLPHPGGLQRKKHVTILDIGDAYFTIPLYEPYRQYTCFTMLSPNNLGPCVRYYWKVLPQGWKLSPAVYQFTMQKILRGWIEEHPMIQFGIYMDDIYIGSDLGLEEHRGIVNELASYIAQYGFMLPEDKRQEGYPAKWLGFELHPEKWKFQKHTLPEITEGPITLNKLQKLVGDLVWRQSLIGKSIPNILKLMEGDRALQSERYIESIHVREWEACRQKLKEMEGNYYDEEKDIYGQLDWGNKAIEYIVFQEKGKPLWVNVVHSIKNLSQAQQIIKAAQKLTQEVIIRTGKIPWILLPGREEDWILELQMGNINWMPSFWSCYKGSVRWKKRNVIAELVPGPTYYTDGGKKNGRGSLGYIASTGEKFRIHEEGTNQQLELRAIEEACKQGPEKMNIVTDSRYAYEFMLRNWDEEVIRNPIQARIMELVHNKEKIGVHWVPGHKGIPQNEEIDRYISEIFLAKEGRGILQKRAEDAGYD", "assay": "Cell-free reverse transcriptase inhibition, VV", "type": "biochemical", "conditions": "template/primer (rA)n.(dT)10, read-out: Percent inhibition", "method": "as §1, §2"}, "[6]": {"target": "T3, reverse transcriptase from BaEV (Baboon endogenous virus, UniProt P10272)", "T3 construct": "Reverse transcriptase from various retroviruses have been tested in cell-free assays", "T3 sequence (P10272 659-1335)": "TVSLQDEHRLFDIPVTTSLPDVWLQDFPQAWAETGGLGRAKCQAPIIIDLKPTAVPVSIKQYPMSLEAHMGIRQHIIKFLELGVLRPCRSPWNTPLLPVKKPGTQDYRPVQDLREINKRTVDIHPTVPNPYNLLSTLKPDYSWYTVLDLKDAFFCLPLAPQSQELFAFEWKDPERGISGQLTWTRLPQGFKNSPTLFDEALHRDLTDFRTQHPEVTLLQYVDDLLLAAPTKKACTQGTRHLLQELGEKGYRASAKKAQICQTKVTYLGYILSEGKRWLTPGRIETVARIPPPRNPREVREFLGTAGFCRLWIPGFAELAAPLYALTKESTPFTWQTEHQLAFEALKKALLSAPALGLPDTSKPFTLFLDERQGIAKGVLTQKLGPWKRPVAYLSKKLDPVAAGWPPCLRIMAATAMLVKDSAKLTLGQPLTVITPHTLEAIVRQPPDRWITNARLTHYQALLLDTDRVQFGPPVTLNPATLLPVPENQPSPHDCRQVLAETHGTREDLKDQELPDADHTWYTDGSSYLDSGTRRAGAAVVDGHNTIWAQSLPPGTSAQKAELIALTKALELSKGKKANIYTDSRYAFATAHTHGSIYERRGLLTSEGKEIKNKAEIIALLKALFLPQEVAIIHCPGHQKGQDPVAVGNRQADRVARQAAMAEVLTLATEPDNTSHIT", "assay": "Cell-free reverse transcriptase inhibition, BaEV", "type": "biochemical", "conditions": "template/primer (rA)n.(dT)10, read-out: Percent inhibition", "method": "as §1, §2"}, "[7]": {"target": "T4, reverse transcriptase from SSV (Woolly monkey sarcoma virus, UniProt P03359)", "T4 construct": "Reverse transcriptase from various retroviruses have been tested in cell-free assays", "T4 sequence (P03359 642-1310)": "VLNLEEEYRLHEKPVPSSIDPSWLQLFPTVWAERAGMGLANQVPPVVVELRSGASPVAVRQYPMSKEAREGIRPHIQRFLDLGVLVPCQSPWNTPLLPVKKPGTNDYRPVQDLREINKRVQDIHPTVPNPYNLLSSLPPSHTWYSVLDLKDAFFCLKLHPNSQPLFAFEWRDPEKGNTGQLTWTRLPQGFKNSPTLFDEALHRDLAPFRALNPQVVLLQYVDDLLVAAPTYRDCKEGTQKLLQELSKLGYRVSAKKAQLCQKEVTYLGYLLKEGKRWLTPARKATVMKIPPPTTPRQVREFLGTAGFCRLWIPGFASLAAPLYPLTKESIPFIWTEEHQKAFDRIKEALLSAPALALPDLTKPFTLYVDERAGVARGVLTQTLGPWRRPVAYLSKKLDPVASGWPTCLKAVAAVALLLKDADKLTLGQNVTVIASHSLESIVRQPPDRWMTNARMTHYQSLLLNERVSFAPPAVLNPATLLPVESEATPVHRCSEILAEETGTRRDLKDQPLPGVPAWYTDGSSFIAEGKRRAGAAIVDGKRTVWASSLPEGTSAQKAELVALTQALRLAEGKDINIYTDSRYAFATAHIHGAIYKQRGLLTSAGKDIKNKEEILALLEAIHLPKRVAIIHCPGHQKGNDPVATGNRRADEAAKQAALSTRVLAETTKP", "assay": "Cell-free reverse transcriptase inhibition, SSV", "type": "biochemical, simian sarcoma virus", "conditions": "template/primer (rA)n.(dT)10, read-out: Percent inhibition", "method": "as §1, §2"}, "[8]": {"tested_on": "reverse transcriptase from RMuLV", "assay": "Cell-free reverse transcriptase inhibition, RMuLV", "type": "biochemical, Rauscher murine leukemia virus", "conditions": "template/primer (rA)n.(dT)10", "method": "as §1, §2"}}, "data": [{"compound": "O=C(O)CP(=O)(O)O", "note": "[phosphonoacetic acid, reference compound]", "values": [{"measurement": "Percent inhibition", "setting": "[1]; 10 μM, endogenous template", "value": 0, "unit": "%"}, {"measurement": "Percent inhibition", "setting": "[1]; 10 μM, purified enzyme, (rA)n.(dT)10", "value": 0, "unit": "%"}, {"measurement": "Percent inhibition", "setting": "[1]; 10 μM, template/primer (rA)n.(dT)10", "value": 0, "unit": "%"}, {"measurement": "Percent inhibition", "setting": "[1]; 100 μM, endogenous template", "value": -2, "unit": "%"}, {"measurement": "Percent inhibition", "setting": "[1]; 100 μM, purified enzyme, (rA)n.(dT)10", "value": 0, "unit": "%"}, {"measurement": "Percent inhibition", "setting": "[1]; 100 μM, template/primer (rA)n.(dT)10", "value": -34, "unit": "%"}, {"measurement": "Percent inhibition", "setting": "[1]; 500 μM, endogenous template", "value": -3, "unit": "%"}, {"measurement": "Percent inhibition", "setting": "[1]; 500 μM, purified enzyme, (rA)n.(dT)10", "value": 19, "unit": "%"}, {"measurement": "Percent inhibition", "setting": "[1]; 500 μM, template/primer (rA)n.(dT)10", "value": -86, "unit": "%"}, {"measurement": "Result (skin irritation), area of application penis", "setting": "[2]", "value": "Glans penis and adjacent skin areas irritated 9/3-12/3 Adjacent skin areas also showed symptoms 23/3"}, {"measurement": "effect on virus multiplication", "setting": "visna virus; SCP cells", "value": "does not prevent virus multiplication"}, {"measurement": "Morphological changes Day 3", "setting": "visna virus; Visna virus infected cells", "value": "+ (10% cell degeneration)"}, {"measurement": "Morphological changes Day 5", "setting": "visna virus; Visna virus infected cells", "value": "++ (25% cell degeneration)"}, {"measurement": "Morphological changes Day 7", "setting": "visna virus; Visna virus infected cells", "value": "++++ (100% cell degeneration)"}, {"measurement": "inhibition at 100 µM", "setting": "[3]; 100 μM", "value": 0, "unit": "%"}, {"measurement": "inhibition at 500 µM", "setting": "[3]; 500 μM", "value": 10, "unit": "%"}, {"measurement": "skin condition after two weeks", "setting": "[4]", "value": "the skin heals after about two weeks but remains hairless"}, {"measurement": "skin irritation score", "setting": "[4]; pH 6.5", "value": "2-3 score"}, {"measurement": "inhibition at 100 µM", "setting": "[5]; 100 μM", "value": 25, "unit": "%"}, {"measurement": "inhibition at 500 µM", "setting": "[5]; 500 μM", "value": 3, "unit": "%"}, {"measurement": "inhibition at 10 µM", "setting": "[6]; 10 μM", "value": 5, "unit": "%"}, {"measurement": "inhibition at 100 µM", "setting": "[6]; 100 μM", "value": 58, "unit": "%"}, {"measurement": "inhibition at 500 µM", "setting": "[6]; 500 μM", "value": 71, "unit": "%"}, {"measurement": "inhibition at 10 µM", "setting": "[7]; 10 μM", "value": 0, "unit": "%"}, {"measurement": "inhibition at 100 µM", "setting": "[7]; 100 μM", "value": 44, "unit": "%"}, {"measurement": "inhibition at 500 µM", "setting": "[7]; 500 μM", "value": 58, "unit": "%"}, {"measurement": "Percent inhibition", "setting": "[8]; 10 μM", "value": 0, "unit": "%"}, {"measurement": "Percent inhibition", "setting": "[8]; 100 μM", "value": 10, "unit": "%"}, {"measurement": "Percent inhibition", "setting": "[8]; 500 μM", "value": 35, "unit": "%"}]}]}
